Entries after “also recorded” stand apart in the source; their conditions may differ.
Legend:
IR HepG2 cells = experiment: Glucose consumption assay in IR HepG2 cells; format: cell-based, Human; details: for EC50: Homo sapiens, insulin-resistant HepG2 cells, 24 h incubation with compound, read-out: EC50, effects on glucose consumption in IR HepG2 cells; for Antidiabetic activity (glucose consumption) compared with metformin, in words: IR HepG2 cells, comparison with metformin
Experimental: The compounds were dissolved in DMSO as stock. The final solution was 1:1,000 dilution of the stock in DMEM.
Human HepG2 cells were cultured in 96-well cluster plates, after achieving confluence, 10^−[…] insulin was treated for 36 h in serum-free and phenol red-free high-glucose DMEM. After this incubation, the cells were washed four times with high-glucose DMEM ([…]) and twice with phosphate-buffered saline. The cells were added to serum-free and phenol red-free high-glucose DMEM containing the various test compounds at different concentrations, incubated for 24 h, and then glucose content in the culture medium was measured using a glucose assay kit.
The enhancement ratio of glucose consumption (GC) was calculated as follows: GC %=(GC treatment group−GC of control group)/GC of control group×100.
The potencies of the products were expressed as median effective concentration (EC50) values.
All data were presented as the means±SD. SPSS10.0 was used for statistical analysis. Statistical significance was at a level of 5% (p<0.05).

GLUT4 = experiment: GLUT4myc translocation (cell surface GLUT4myc density, ELISA) in L6-GLUT4myc skeletal muscle cells; format: cell-based, rat; details: for Stimulation of GLUT4myc translocation, in words: L6-GLUT4myc muscle cells, 24 h incubation; for Effect on GLUT4 translocation compared with insulin: L6-GLUT4myc cells, insulin 100 nM positive control
Source text: GLUT4 is the main glucose transporter in skeletal muscle. In the basal state, the majority of GLUT4 locate in vesicles of cytoplasma. In response to insulin, GLUT4 translocates to the cell membrane, therefore transport more glucose into cell. The rate of glucose transport is the rate-limiting step of glucose metabolism in skeletal muscle. […] In order to measure GLUT4 translocation, we use stable over expressing GLUT4myc rat muscle cell line, L6-GLUT4myc. The amount of GLUT4 on intact cell membrane was measured by ELISA with anti-myc antibody and HRP-conjugated secondary antibody. The OD value was detected at 492 nm.
The tested compounds were dissolved in DMSO as stock. The final solution was 1:1,000 dilution of the stock in low glucose DMEM.
The cells were treated with each compound at 2 to 5 different concentrations with triplicate in each group. The control group was treated with 0.1% DMSO. The blank group had no treatment. Insulin was used as positive control.
Myoblasts were cultured and differentiated into myotubes. Cells were serum starved for 4 hours, then incubated with different compounds at different concentrations for 24 hours or with 100 nM insulin for 20 min. Then cells were washed 3 times with ice-cold phosphate-butfered saline (PBS) supplemented with 1 mM Ca2+ and 1 mM Mg2+(PBS+), fixed with 3% (v/v) paraformaldehyde (PFA) in PBS+ for 10 min at 4° C., then 20 min at room temperature. The cells were washed twice with PBS+, quenched 10 min with 100 mM glycine in PBS+, blocked 10 min with ice-cold 5% (v/v) milk in PBS+, and reacted with polyclonal anti-myc antibody (1:250) for 1 hour. After washing 6 times with PBS+, cells reacted with HRP-bound goat anti-rabbit secondary antibody (1:5000) for 1 hour. The cells were washed 6 times with PBS+, and incubated with 1.0 ml OPD reagent and allowed to develop for 10-20 min. The reaction was stopped with 0.25 ml per well of 3 M HCl. Supernatants were collected and absorbance was measured at 492 nm. Background absorbance obtained in the absence of anti-myc antibody was subtracted from all values.
All data were presented as the means±SD. SPSS16.0 was used for statistical analysis. Data sets of more than two groups were compared using analysis of variance (One-Way ANOVA). Statistical significance was at a level of 5% (p<0.05).

ACC = experiment: Phosphorylation of ACC by western blotting in HepG2 cells; format: cell-based, Human; details: 2 h incubation, western blot
Experimental: (§1) In this section, Western Blotting was used to assay the effect of these flavonoids on the phosphorylation of AMPK and ACC in HepG2 cells to illustrate the relationship between the mechanism of the flavonoids on glucose uptake and lipid metabolism and APMK signal pathway.
(§2) Whole cell lysate preparation: After serum-starving HepG2 cells, the cells were incubated with the flavonoids for 2 h, and then washed twice with PBS. Next, pre-chilled RIPA lysis buffer was added for 20 min at 4° C. The lysates were centrifuged at 13,000 rpm/min for 10 min at 4° C., and the supernatants were used for determination of total protein content. Forty micrograms of protein from the supernatant was aliquoted and its volume was adjusted to thirty microliters using deionized water and loading buffer. Lastly, the protein samples were heated at 65° C. for 15 min.
(§3) Western blot analysis: The samples were electrophoresed on 7.5% SDS-polyacrylamide gels, transferred to polyvinylidene fluoride membranes, blocked for 1 h in 5% (w/v) bovine serum albumin, and then incubated with primary antibodies overnight at 4° C. The membranes were washed three times with TBST and incubated with appropriate secondary antibodies conjugated to horse-radish peroxidase for 1 h at room temperature. The immunoreactive bands were detected using chemiluminescent reagent and autoradiographic film.

AMPK = experiment: Phosphorylation of AMPK by western blotting in HepG2 cells; format: cell-based, Human; details: 2 h incubation, western blot
Experimental: as §1, §2, §3

SMILES	EC50 (IR HepG2 cells) [nM]	Antidiabetic activity (glucose consumption) compared with metformin, in words (IR HepG2 cells)	other results
O=C(/C=C/c1ccc(Br)cc1)COc1c(-c2ccc(O)cc2)oc2cc(O)cc(O)c2c1=O [Compound I-13, 3-O-[(E)-4-(4-Bromophenyl)-2-oxobut-3-en-1-yl] kaempferol]	393		
COc1ccc(/C=C/C(=O)COc2c(-c3ccc(O)cc3)oc3cc(O)cc(O)c3c2=O)cc1 [Compound I-3, 3-O-[(E)-4-(4-Methoxyphenyl)-2-oxobut-3-en-1-yl] kaempferol]	149	comparable activity with that of metformin; also recorded: significantly superior to that of metformin	Stimulation of GLUT4myc translocation, in words (GLUT4): significantly stimulate GLUT4myc translocation
CN(C)C(=N)N=C(N)N [metformin, reference compound]	270		
O=C(/C=C/c1ccc(F)cc1)COc1c(-c2ccc(O)cc2)oc2cc(O)cc(O)c2c1=O [Compound I-14, 3-O-[(E)-4-(4-Fluorophenyl)-2-oxobut-3-en-1-yl] kaempferol]	669		Stimulation of GLUT4myc translocation, in words (GLUT4): significantly stimulate GLUT4myc translocation
O=C(/C=C/c1ccc(O)cc1)COc1c(-c2ccc(O)cc2)oc2cc(O)cc(O)c2c1=O [Compound I-1, 3-O-[(E)-4-(4-Hydroxyphenyl)-2-oxobut-3-en-1-yl] kaempferol]	368	comparable activity with that of metformin	
Cc1ccc(/C=C/C(=O)COc2c(-c3ccc(O)cc3)oc3cc(O)cc(O)c3c2=O)cc1 [Compound I-6, 3-O-[(E)-(2-Oxo-4-(p-tolyl)but-3-en-1-yl)] kaempferol]	10	comparable activity with that of metformin; also recorded: significantly superior to that of metformin	
COc1cc(/C=C/C(=O)COc2c(-c3ccc(O)cc3)oc3cc(O)cc(O)c3c2=O)ccc1O [Compound I-8, 3-O-[(E)-4-(3-Methoxy-4-hydroxyphenyl-)-2-oxobut-3-en-1-yl]kaempferol]	6190		
CC(C)c1ccc(/C=C/C(=O)COc2c(-c3ccc(O)cc3)oc3cc(O)cc(O)c3c2=O)cc1 [Compound I-10, 3-O-[(E)-4-(4-Isopropylphenyl)-2-oxobut-3-en-1-yl] kaempferol]	15	comparable activity with that of metformin; also recorded: significantly superior to that of metformin	Stimulation of GLUT4myc translocation, in words (GLUT4): significantly stimulate GLUT4myc translocation
CCOc1ccc(/C=C/C(=O)COc2c(-c3ccc(O)cc3)oc3cc(O)cc(O)c3c2=O)cc1 [Compound I-4, 3-O-[(E)-4-(4-Ethoxyphenyl)-2-oxobut-3-en-1-yl] kaempferol]	42	comparable activity with that of metformin; also recorded: significantly superior to that of metformin	
O=C(/C=C/c1ccccc1)COc1c(-c2ccc(O)cc2)oc2cc(O)cc(O)c2c1=O [Compound I-5, 3-O-[(E)-(2-Oxo-4-phenylbut-3-en-1-yl)] kaempferol]	473		
O=C(/C=C/c1ccc(O)c(Cl)c1)COc1c(-c2ccc(O)cc2)oc2cc(O)cc(O)c2c1=O [Compound I-11, 3-O-[(E)-4-(3-Chloro-4-hydroxyphenyl)-2-oxobut-3-en-1-yl] kaempferol]	3560		
CC(C)(C)c1ccc(/C=C/C(=O)COc2c(-c3ccc(O)cc3)oc3cc(O)cc(O)c3c2=O)cc1 [Compound I-9, 3-O-[(E)-4-(4-(tert-Butyl)phenyl)-2-oxobut-3-en-1-yl] kaempferol]	13	comparable activity with that of metformin; also recorded: significantly superior to that of metformin	
O=C(/C=C/c1ccc(Cl)cc1)COc1c(-c2ccc(O)cc2)oc2cc(O)cc(O)c2c1=O [Compound I-15, 3-O-[(E)-4-(4-Chlorophenyl)-2-oxobut-3-en-1-yl] kaempferol]	1080		
N#Cc1ccc(/C=C/C(=O)COc2c(-c3ccc(O)cc3)oc3cc(O)cc(O)c3c2=O)cc1 [Compound I-12, 3-O-[(E)-4-(4-Cyanophenyl)-2-oxobut-3-en-1-yl] kaempferol]	3	comparable activity with that of metformin; also recorded: significantly superior to that of metformin; also recorded: strongest antidiabetic activity; also recorded: greater than that of marketed drug metformin	Effect on GLUT4 translocation compared with insulin (GLUT4; 2 μg/ml): higher effect on GLUT4 translocation than insulin; also recorded: strongest effect on promoting glucose transporter 4 translocation than insulin; Effect on GLUT4 translocation compared with insulin (GLUT4; 5 μg/ml): higher effect on GLUT4 translocation than insulin; also recorded: strongest effect on promoting glucose transporter 4 translocation than insulin; Stimulation of GLUT4myc translocation, in words (GLUT4): strongest effect; also recorded: significantly stimulate GLUT4myc translocation; Phosphorylation of ACC (ACC): significantly stimulate the phosphorylation; Phosphorylation of AMPK (AMPK): significantly stimulate the phosphorylation
COc1ccc(/C=C/C(=O)COc2c(-c3ccc(O)cc3)oc3cc(O)cc(O)c3c2=O)cc1O [Compound I-7, 3-O-[(E)-4-(3-Hydroxy-4-methoxyphenyl)-2-oxobut-3-en-1-yl]kaempferol]	5070		
O=C(/C=C/c1ccc(OCc2ccccc2)cc1)COc1c(-c2ccc(O)cc2)oc2cc(O)cc(O)c2c1=O [Compound I-2, 3-O-[(E)-4-(4-(Benzyloxyphenyl))-2-oxobut-3-en-1-yl] kaempferol]	658		Stimulation of GLUT4myc translocation, in words (GLUT4): significantly stimulate GLUT4myc translocation
O=C(/C=C/c1ccc(Cl)c(Cl)c1)COc1c(-c2ccc(O)cc2)oc2cc(O)cc(O)c2c1=O [Compound I-16, 3-O-[(E)-4-(3,4-Dichlorophenyl)-2-oxobut-3-en-1-yl] kaempferol]	2590		

Reference: patent US8946457B2, “Flavone derivatives and their preparative method and medical use” (Tianjin Medical University, priority 2010, dated 2015)
